The conditions of data set [1]: pH 7.4.
Experimental: Test compounds were prepared as 0.5 mM solutions in 50:50 acetonitrile:water and analyzed by reversed-phase HPLC-UV (wavelength 254 nm) using a Phenomenex Luna C18 100 Å 150 × 4.6 mm 5 μm column with a gradient of aqueous phase (50 mM ammonium acetate, pH 7.4) and mobile phase (acetonitrile) as described.[41],[42]
A short description of data set [2]: in vitro. The following applies: PAMPA, pH 7.4. In general terms: PAMPA measures passive passage across an artificial lipid membrane.
Experimental: (§1) In vitro ADME experiments were performed exactly as reported.[38]−[40]
Data set [3] in a line: physchem. The following applies: aqueous medium at pH 7.4, pH 7.4.
Experimental: as §1

In brackets after ≈: the same amount, converted by molar mass.

Results on three compounds are retold here after article PMC10683028 (Journal of Medicinal Chemistry, 2023).

In turn, `COc1ccc(-c2noc(C(=O)NC(C#N)Cc3ccc(C(=O)N4CC(OC)C4)cc3)n2)cc1OC` (stereo not drawn) [compound 34, N-(1-Cyano-2-(4-(3-methoxyazetidine-1-carbonyl)phenyl)ethyl)-3-(3,4-dimethoxyphenyl)-1,2,4-oxadiazole-5-carboxamide] gave a CHI-logDpH7.4 in data set [1] of 2.2. The Papp (usually the rate of passage across a membrane or cell layer, normalised by area and donor concentration) in data set [2] was 1.5 ×10⁻⁶ cm/s. Besides, the solubility (commonly the dissolved amount per volume that the medium holds) in data set [3] was 164 µM (≈ 80.6 µg/mL).
The corresponding values for `COc1ccc(-c2nnc(C(=O)NCCc3ccc(C(=O)N4CC(OC)C4)cc3)o2)cc1OC` [compound 104, 5-(3,4-Dimethoxyphenyl)-N-(4-(3-methoxyazetidine-1-carbonyl)phenethyl)-1,3,4-oxadiazole-2-carboxamide] are 1.7, 0.8 ×10⁻⁶ cm/s and 11 µM (≈ 5.13 µg/mL).
`COc1ccc(-c2noc(C(=O)NCCc3ccc(C(=O)N4CC(OC)C4)cc3)n2)cc1OCC1CC1` [compound 77, 3-[3-(Cyclopropylmethoxy)-4-methoxyphenyl]-N-[2-[4-(3-methoxyazetidine-1-carbonyl)phenyl]ethyl]-1,2,4-oxadiazole-5-carboxamide]: the CHI-logDpH7.4 in data set [1] is listed as 2.9. The apparent permeability (Papp) in data set [2] came out at 3.6 ×10⁻⁶ cm/s. In addition, in data set [3], the concentration in solution (solubility) was 2 µM (≈ 1.01 µg/mL).
